Results published in US9079901B2, “Fused heterocyclic compounds as ion channel modulators” (Gilead Sciences, Inc., priority 2010, dated 2015).

Target: wild-type human cardiac sodium channel, hNav1.5 (late sodium current) in HEK293 cells (Homo sapiens, UniProt Q14524)
Test: Late INa screening assay (automated whole-cell patch clamp, PatchXpress)
Type: cell-based
Conditions: late INa generated with 10 μM Tefluthrin (or 50 nM ATX II), HEK293 hNav1.5; for inhibition at 1 µM: HEK293, compound at 1 μM, read-out: Late INa 1 μM (percent block of late INa)
Method: The late sodium current (Late INa) and peak sodium current (Peak INa) assays are performed on an automated electrophysiology platform, PatchXpress 7000A (MDS Analytical Technologies, Sunnyvale, Calif.), which uses the whole cell patch clamp technique to measure currents through the cell membrane of up to 16 cells at a time. The assay uses an HEK293 (human embryonic kidney) cell line heterologously expressing the wild-type human cardiac sodium channel, hNav1.5, purchased from Millipore (Billerica, Mass.). No beta subunits were coexpressed with the Na channel alpha subunit. Cells are maintained with standard tissue culture procedures and stable channel expression is maintained with 400 μg/ml Geneticin in the culture medium. Cells isolated for use on PatchXpress are incubated for 5 minutes in Versene 1× and then for 2 minutes in 0.0125% Trypsin-EDTA (both at 37° C.) to ensure that 80-90% of the cells are single and not part of a cell cluster. Experiments are carried out at 24-27° C.
For both the Late INa and Peak INa assays, series resistance compensation is set to 50% and whole-cell compensation is performed automatically. Currents are low-pass filtered at 10 kHz and digitized at 31.25 kHz. Currents through open sodium channels are automatically recorded and stored in the DataXpress2 database (MDS Analytical Technologies, Sunnyvale, Calif.). Analysis is performed using DataXpress2 analysis software and data are compiled in Excel.
Compound stocks are routinely made in glass vials to 10 mM in dimethyl sulfoxide (DMSO). In some cases, when compounds are not soluble in DMSO, they are made in 100% ethanol. Stocks are sonicated as necessary. The extracellular solution for screening Late INa is composed of: 140 mM NaCl, 4 mM KCl, 1.8 mM CaCl2, 0.75 mM MgCl2, and 5 mM HEPES with pH adjusted to 7.4 using NaOH. The extracellular solution for screening Peak INa is composed of: 20 mM NaCl, 120 mM N-methyl-D glucamine, 4 mM KCl, 1.8 mM CaCl2, 0.75 mM MgCl2, and 5 mM HEPES with pH adjusted to 7.4 using HCl. The intracellular solution used to perfuse the inside of the cells for both the Late INa and Peak INa assays contains: 120 mM CsF, 20 mM CsCl, 5 mM EGTA, 5 mM HEPES and pH adjusted to 7.4 with CsOH. Compounds are diluted in extracellular solution to 10 μM in glass vials and then transferred to glass well plates before robotic addition to the cells. The 0Na extracellular solution used at the end of each experiment for the Late INa and Peak INa assays to measure baseline current contains: 140 mM N-methyl-D-glucamine; 4 mM KCl; 1.8 mM CaCl2; 0.75 mM MgCl2; 5 mM HEPES and pH was adjusted to 7.4 with HCl.
For the Late INa assay, sodium channels are activated every 10 seconds (0.1 Hz) by depolarizing the cell membrane to −20 mV for 250 milliseconds (ms) from a holding potential of −120 mV. In response to a −20 mV voltage step, typical Nav1.5 sodium currents activate rapidly to a peak negative current and then inactivate nearly completely within 3-4 ms.
All compounds are tested to determine their activity in blocking the late sodium current. Late INa current is generated by adding 10 μM Tefluthrin (pyrethroid) to the extracellular solution while recording Na currents. For some experiments, 50 nM ATX II (sea anemone toxin), another late INa activator, was used to generate the late component. Both activators generate late components that are large enough that block of the late component by compounds can be measured easily. For the purposes of the screening, late INa is defined as the mean current between 225 ms and 250 ms after stepping to −20 mV to activate Na channels. After establishing the whole cell recording configuration, late INa activators are added to each well 4 times over a 16-17 minute period so that the late component of the Na current reaches a stable value. Compounds are then added (typically at 10 μM), in the presence of late INa activator, with 3 additions over the course of 7 or 8 minutes. […]

Chain of wild-type human cardiac sodium channel, hNav1.5 (late sodium current) in HEK293 cells (Q14524 whole entry): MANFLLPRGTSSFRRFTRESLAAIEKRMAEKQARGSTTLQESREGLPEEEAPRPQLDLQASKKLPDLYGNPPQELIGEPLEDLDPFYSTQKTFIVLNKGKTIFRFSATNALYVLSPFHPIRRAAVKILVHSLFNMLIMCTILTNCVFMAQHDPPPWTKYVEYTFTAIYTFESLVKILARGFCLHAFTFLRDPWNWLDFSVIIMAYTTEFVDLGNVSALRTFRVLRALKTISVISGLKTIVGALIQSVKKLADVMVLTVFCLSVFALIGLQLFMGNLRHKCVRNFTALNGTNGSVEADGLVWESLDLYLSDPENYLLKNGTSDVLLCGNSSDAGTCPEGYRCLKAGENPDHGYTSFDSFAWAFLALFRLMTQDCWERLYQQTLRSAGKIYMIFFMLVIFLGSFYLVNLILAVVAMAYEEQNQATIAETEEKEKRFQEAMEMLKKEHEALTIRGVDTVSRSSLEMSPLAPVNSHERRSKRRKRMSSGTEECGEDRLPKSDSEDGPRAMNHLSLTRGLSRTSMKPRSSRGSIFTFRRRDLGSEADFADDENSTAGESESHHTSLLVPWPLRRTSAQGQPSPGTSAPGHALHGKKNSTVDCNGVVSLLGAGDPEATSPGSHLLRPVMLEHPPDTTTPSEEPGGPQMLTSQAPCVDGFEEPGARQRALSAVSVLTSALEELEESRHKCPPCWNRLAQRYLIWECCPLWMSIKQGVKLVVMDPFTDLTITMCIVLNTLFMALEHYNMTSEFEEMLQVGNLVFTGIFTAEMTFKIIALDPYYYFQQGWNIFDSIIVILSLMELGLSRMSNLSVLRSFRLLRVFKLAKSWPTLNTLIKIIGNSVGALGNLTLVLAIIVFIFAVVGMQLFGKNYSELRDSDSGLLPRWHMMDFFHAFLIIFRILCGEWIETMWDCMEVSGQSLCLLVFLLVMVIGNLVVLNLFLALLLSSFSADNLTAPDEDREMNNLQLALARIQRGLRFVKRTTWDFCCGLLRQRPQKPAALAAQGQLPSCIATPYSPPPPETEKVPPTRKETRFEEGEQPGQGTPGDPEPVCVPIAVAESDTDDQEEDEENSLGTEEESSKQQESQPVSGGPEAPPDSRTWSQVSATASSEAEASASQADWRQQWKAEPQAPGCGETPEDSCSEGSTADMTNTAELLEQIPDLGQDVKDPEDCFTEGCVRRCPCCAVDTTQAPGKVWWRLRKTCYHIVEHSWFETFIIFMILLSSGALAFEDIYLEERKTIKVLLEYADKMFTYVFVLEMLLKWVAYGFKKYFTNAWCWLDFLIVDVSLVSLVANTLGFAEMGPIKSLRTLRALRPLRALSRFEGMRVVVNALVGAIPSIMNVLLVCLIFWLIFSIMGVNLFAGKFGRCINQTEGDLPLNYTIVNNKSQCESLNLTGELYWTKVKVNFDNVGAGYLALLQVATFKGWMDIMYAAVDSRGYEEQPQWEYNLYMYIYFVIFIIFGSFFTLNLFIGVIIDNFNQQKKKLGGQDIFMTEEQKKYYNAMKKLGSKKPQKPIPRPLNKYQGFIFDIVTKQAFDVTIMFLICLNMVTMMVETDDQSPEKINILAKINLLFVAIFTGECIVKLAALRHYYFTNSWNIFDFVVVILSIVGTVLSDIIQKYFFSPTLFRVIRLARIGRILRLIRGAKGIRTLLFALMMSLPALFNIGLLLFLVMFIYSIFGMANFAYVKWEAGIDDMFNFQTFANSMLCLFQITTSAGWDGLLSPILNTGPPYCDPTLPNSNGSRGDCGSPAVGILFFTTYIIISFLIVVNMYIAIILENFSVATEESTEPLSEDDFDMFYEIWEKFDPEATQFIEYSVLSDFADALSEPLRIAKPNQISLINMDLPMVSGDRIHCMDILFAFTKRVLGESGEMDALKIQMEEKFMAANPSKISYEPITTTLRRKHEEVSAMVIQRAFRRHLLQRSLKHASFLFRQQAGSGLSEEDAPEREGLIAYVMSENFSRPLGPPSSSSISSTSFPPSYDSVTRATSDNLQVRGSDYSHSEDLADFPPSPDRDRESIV

SMILES	inhibition at 1 µM [%]	Late INa 1 μM (percent block of late INa) (compound at 1 μM) [%]
Cn1nc(C2CC2)cc1Cn1nc2ccc(-c3ccc(OC(F)(F)F)cc3)cn2c1=O [compound 26, 2-((3-cyclopropyl-1-methyl-1H-pyrazol-5-yl)methyl)-6-(4-(trifluoromethoxy)phenyl)-[1,2,4]triazolo[4,3-a]pyridin-3(2H)-one]	19.3	–
Cc1noc(Cn2nc3ccc(-c4ccc(Oc5ccc(F)cc5)cc4)cn3c2=O)n1 [compound 93, 6-(4-(4-fluorophenoxy)phenyl)-2-((3-methyl-1,2,4-oxadiazol-5-yl)methyl)-[1,2,4]triazolo[4,3-a]pyridin-3(2H)-one]	71.3	–
COc1cccc(CCn2nc3ccc(-c4ccc(OC(F)(F)F)cc4)cn3c2=O)n1 [compound 103, 2-(2-(6-methoxypyridin-2-yl)ethyl)-6-(4-(trifluoromethoxy)phenyl)-[1,2,4]triazolo[4,3-a]pyridin-3(2H)-one]	49.7	–
CC(C)(C)c1cnc(Cn2nc3ccc(-c4ccc(OC(F)(F)F)cc4)cn3c2=O)o1 [compound 183, 2-((5-tert-butyloxazol-2-yl)methyl)-6-(4-(trifluoromethoxy)phenyl)-[1,2,4]triazolo[4,3-a]pyridin-3(2H)-one]	14.6	–
O=c1n(Cc2ccccn2)nc2ccc(-c3ccc(OC(F)(F)F)cc3)cn12 [compound 16, 2-(pyridin-2-ylmethyl)-6-(4-(trifluoromethoxy)phenyl)-[1,2,4]triazolo[4,3-a]pyridin-3(2H)-one]	11.5	–
CC(C)n1nc2ccc(-c3ccc(OC(F)(F)F)cc3)cn2c1=O [compound 190, 2-isopropyl-6-(4-(trifluoromethoxy)phenyl)-[1,2,4]triazolo[4,3-a]pyridin-3(2H)-one]	17.6	–
O=c1n(Cc2ncon2)nc2ccc(-c3ccc(OC(F)(F)F)cc3)cn12 [compound 27, 2-((1,2,4-oxadiazol-3-yl)methyl)-6-(4-(trifluoromethoxy)phenyl)-[1,2,4]triazolo[4,3-a]pyridin-3(2H)-one]	11.2	–
O=c1n(CCCOc2ccccc2C(F)(F)F)nc2ccc(-c3ccc(OC(F)(F)F)cc3)cn12 [compound 71, 6-(4-(trifluoromethoxy)phenyl)-2-(3-(2-(trifluoromethyl)phenoxy)propyl)-[1,2,4]triazolo[4,3-a]pyridin-3(2H)-one]	–	26.0692
CCOc1ccccc1OCC(O)Cn1nc2ccc(-c3ccc(OC(F)(F)F)cc3)cn2c1=O (stereo not shown) [compound 99, 2-(3-(2-ethoxyphenoxy)-2-hydroxypropyl)-6-(4-(trifluoromethoxy)phenyl)-[1,2,4]triazolo[4,3-a]pyridin-3(2H)-one]	36.5	–
Cc1noc(Cn2nc3ccc(-c4ccc(Cl)c(F)c4)cn3c2=O)n1 [compound 161, 6-(4-chloro-3-fluorophenyl)-2-((3-methyl-1,2,4-oxadiazol-5-yl)methyl)-[1,2,4]triazolo[4,3-a]pyridin-3(2H)-one]	13.9	–
O=c1[nH]nc2ccc(-c3ccc(OC(F)(F)F)cc3)cn12 [compound 200, 6-(4-(trifluoromethoxy)phenyl)-[1,2,4]triazolo[4,3-a]pyridin-3(2H)-one]	26.5	–
Cn1ccc(Cn2nc3ccc(-c4ccc(OC(F)(F)F)cc4)cn3c2=O)n1 [compound 165, 2-((1-methyl-1H-pyrazol-3-yl)methyl)-6-(4-(trifluoromethoxy)phenyl)-[1,2,4]triazolo[4,3-a]pyridin-3(2H)-one]	10.8	–
CC(Cn1nc2ccc(-c3ccc(OC(F)(F)F)cc3)cn2c1=O)c1ccccn1 (stereo not shown) [compound 102, 2-(2-(pyridin-2-yl)propyl)-6-(4-(trifluoromethoxy)phenyl)-[1,2,4]triazolo[4,3-a]pyridin-3(2H)-one]	36.2	–
Cc1noc(-c2ccccc2OCCn2nc3ccc(-c4ccc(OC(F)(F)F)cc4)cn3c2=O)n1 [compound 84, 2-(2-(2-(3-methyl-1,2,4-oxadiazol-5-yl)phenoxy)ethyl)-6-(4-(trifluoromethoxy)phenyl)-[1,2,4]triazolo[4,3-a]pyridin-3(2H)-one]	34.3	–
O=c1n(CCCc2ccc(F)c(-c3cccnc3)c2)nc2ccc(-c3ccc(OC(F)(F)F)cc3)cn12 [compound 121, 2-(3-(4-fluoro-3-(pyridin-3-yl)phenyl)propyl)-6-(4-(trifluoromethoxy)phenyl)-[1,2,4]triazolo[4,3-a]pyridin-3(2H)-one]	13.1	–
Cn1nc2ccc(-c3ccc(C(F)(F)F)cc3)cn2c1=O [compound 185, 2-methyl-6-(4-(trifluoromethyl)phenyl)-[1,2,4]triazolo[4,3-a]pyridin-3(2H)-one]	10.1	–
O=c1n(CCCOc2ccccc2F)nc2ccc(-c3ccc(OC(F)(F)F)cc3)cn12 [compound 51, 2-(3-(2-fluorophenoxy)propyl)-6-(4-(trifluoromethoxy)phenyl)-[1,2,4]triazolo[4,3-a]pyridin-3(2H)-one]	25.6	–
O=c1n(CCOc2ccc(F)cc2)nc2ccc(-c3ccc(OC(F)(F)F)cc3)cn12 [compound 55, 2-(2-(4-fluorophenoxy)ethyl)-6-(4-(trifluoromethoxy)phenyl)-[1,2,4]triazolo[4,3-a]pyridin-3(2H)-one]	24.3	–
O=c1n(Cc2noc(-c3cccc(C(F)(F)F)c3)n2)nc2ccc(-c3ccc(OC(F)(F)F)cc3)cn12 [compound 7, 6-(4-(trifluoromethoxy)phenyl)-2-((5-(3-(trifluoromethyl)phenyl)-1,2,4-oxadiazol-3-yl)methyl)-[1,2,4]triazolo[4,3-a]pyridin-3(2H)-one]	24.5	–
Cc1c(-c2ccc(OC(F)(F)F)cc2)ccc2n[nH]c(=O)n12 [compound 187, 5-methyl-6-(4-(trifluoromethoxy)phenyl)-[1,2,4]triazolo[4,3-a]pyridin-3(2H)-one]	29.8	–
O=C1C(Oc2ccccc2)CCN1CCn1nc2ccc(-c3ccc(OC(F)(F)F)cc3)cn2c1=O (stereo not shown) [compound 112, 2-(2-(2-oxo-3-phenoxypyrrolidin-1-yl)ethyl)-6-(4-(trifluoromethoxy)phenyl)-[1,2,4]triazolo[4,3-a]pyridin-3(2H)-one]	11.1	–
CCc1noc(Cn2nc3ccc(-c4ccc(C(F)(F)F)cc4)cn3c2=O)n1 [compound 167, 2-((3-ethyl-1,2,4-oxadiazol-5-yl)methyl)-6-(4-(trifluoromethyl)phenyl)-[1,2,4]triazolo[4,3-a]pyridin-3(2H)-one]	26.2	–
N#Cc1ccccc1OCCCn1nc2ccc(-c3ccc(OC(F)(F)F)cc3)cn2c1=O [compound 70, 2-(3-(3-oxo-6-(4-(trifluoromethoxy)phenyl)-[1,2,4]triazolo[4,3-a]pyridin-2(3H)-yl)propoxy)benzonitrile]	29.9	–
CO[C@@H](COc1ccccc1Cl)Cn1nc2ccc(-c3ccc(OC(F)(F)F)cc3)cn2c1=O [compound 96, (R)-2-(3-(2-chlorophenoxy)-2-methoxypropyl)-6-(4-(trifluoromethoxy)phenyl)-[1,2,4]triazolo[4,3-a]pyridin-3(2H)-one]	46.1	–
Cc1noc(Cn2nc3ccc(-c4ccc(Cl)c(Cl)c4)cn3c2=O)n1 [compound 134, 6-(3,4-dichlorophenyl)-2-((3-methyl-1,2,4-oxadiazol-5-yl)methyl)-[1,2,4]triazolo[4,3-a]pyridin-3(2H)-one]	15.5	–
